Source: patent US8604217B2, “Compound, a process for its preparation, a pharmaceutical composition, use of a compound, a method for modulating or regulating serine/threonine kinases and a serine/threonine kinases modulating agent” (Selvita S.A., priority 2009, dated 2013)

How the values were obtained:
Assay in all cases: KinaseProfiler kinase panel
Assay type in all cases: biochemical
Fes(h) = Fes(h) (Homo sapiens (Human), UniProt P07332)
BRK(h) = BRK(h) (Homo sapiens (Human), UniProt Q13882)
Rsk4(h) = Rsk4(h) (Homo sapiens (Human), UniProt Q9UK32)
SGK(h) = SGK(h) (Homo sapiens (Human), UniProt O00141)
SGK(h), sequence (O00141 whole entry): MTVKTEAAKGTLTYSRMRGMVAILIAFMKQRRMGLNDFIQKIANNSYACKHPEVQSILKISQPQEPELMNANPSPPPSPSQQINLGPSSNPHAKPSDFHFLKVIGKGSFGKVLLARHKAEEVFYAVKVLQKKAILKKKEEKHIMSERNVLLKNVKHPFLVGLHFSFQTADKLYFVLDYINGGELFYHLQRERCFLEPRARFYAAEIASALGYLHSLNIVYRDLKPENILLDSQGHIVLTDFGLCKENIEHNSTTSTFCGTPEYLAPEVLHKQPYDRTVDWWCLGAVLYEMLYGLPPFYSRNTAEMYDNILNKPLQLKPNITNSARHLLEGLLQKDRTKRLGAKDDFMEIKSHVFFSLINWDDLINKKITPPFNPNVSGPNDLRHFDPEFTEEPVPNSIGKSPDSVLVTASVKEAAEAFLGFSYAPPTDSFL

TSSK2(h) = TSSK2(h) (Homo sapiens (Human), UniProt Q96PF2)
Aurora-A(h) = Aurora-A(h) (Homo sapiens (Human), UniProt O14965)
Aurora-A(h), sequence (O14965 whole entry): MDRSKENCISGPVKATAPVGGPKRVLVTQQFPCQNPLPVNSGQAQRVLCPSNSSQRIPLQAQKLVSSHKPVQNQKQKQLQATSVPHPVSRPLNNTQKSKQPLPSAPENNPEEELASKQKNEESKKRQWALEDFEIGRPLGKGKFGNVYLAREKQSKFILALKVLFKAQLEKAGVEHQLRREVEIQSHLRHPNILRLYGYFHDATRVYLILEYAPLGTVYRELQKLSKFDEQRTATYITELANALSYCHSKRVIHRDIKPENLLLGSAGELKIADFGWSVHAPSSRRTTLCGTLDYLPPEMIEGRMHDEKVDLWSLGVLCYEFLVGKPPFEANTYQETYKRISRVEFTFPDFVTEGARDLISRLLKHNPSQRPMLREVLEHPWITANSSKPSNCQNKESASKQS

EphB2(h) = EphB2(h) (Homo sapiens (Human), UniProt P29323)
EGFR(h) = EGFR(h) (Homo sapiens (Human), UniProt P00533)
CaMKIIγ(h) = CaMKIIγ(h) (Homo sapiens (Human), UniProt Q13555)
IRAK1(h) = IRAK1(h) (Homo sapiens (Human), UniProt P51617)
NEK6(h) = NEK6(h) (Homo sapiens (Human), UniProt Q9HC98)
TRKB(h) = TRKB(h) (Homo sapiens (Human), UniProt Q16620)
Met(Y1248H)(h) = Met(Y1248H)(h) (Homo sapiens (Human), UniProt P08581, Y1248H)
Itk(h) = Itk(h) (Homo sapiens (Human), UniProt Q08881)
TGFBR1(h) = TGFBR1(h) (Homo sapiens (Human), UniProt P36897)
Rsk1(h) = Rsk1(h) (Homo sapiens (Human), UniProt Q15418)
Lck(h) = Lck(h) (Homo sapiens (Human), UniProt P06239)
WNK3(h) = WNK3(h) (Homo sapiens (Human), UniProt Q9BYP7)
Axl(h) = Axl(h) (Homo sapiens (Human), UniProt P30530)
PRK2(h) = PRK2(h) (Homo sapiens (Human), UniProt Q16513)
PRK2(h), sequence (Q16513 whole entry): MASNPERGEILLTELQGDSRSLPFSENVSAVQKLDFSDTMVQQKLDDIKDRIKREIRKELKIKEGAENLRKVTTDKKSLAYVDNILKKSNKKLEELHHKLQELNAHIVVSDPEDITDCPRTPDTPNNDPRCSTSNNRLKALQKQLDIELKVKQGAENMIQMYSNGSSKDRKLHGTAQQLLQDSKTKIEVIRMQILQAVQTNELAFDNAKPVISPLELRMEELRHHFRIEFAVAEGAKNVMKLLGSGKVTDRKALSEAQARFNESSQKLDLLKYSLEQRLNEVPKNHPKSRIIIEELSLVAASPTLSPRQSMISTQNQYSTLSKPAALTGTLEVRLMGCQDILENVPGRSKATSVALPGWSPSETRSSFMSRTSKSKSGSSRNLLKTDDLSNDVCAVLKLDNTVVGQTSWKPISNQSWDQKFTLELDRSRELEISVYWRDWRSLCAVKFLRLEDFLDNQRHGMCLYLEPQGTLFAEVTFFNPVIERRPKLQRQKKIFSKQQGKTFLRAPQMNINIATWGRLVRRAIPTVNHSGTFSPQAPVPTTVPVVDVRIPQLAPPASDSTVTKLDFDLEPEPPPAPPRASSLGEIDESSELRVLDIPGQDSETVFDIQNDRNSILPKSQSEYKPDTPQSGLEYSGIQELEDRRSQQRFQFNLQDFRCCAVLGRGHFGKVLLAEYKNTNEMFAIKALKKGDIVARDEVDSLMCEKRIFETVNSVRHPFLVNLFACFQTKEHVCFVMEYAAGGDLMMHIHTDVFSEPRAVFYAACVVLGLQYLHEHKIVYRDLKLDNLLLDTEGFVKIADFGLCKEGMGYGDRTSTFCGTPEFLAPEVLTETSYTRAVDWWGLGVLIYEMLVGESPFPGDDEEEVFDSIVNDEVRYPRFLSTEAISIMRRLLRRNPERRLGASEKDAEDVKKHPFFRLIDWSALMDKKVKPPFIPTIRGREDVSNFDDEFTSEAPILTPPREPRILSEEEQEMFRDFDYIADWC

CDK5/p25(h) = CDK5/p25(h) (Homo sapiens (Human), UniProt Q00535)
CDK2/cyclinA(h) = CDK2/cyclinA(h) (Homo sapiens (Human), UniProt P24941)
PKCβI(h) = PKCβI(h) (Homo sapiens (Human), UniProt P05771)
PKCβI(h), sequence (P05771 whole entry): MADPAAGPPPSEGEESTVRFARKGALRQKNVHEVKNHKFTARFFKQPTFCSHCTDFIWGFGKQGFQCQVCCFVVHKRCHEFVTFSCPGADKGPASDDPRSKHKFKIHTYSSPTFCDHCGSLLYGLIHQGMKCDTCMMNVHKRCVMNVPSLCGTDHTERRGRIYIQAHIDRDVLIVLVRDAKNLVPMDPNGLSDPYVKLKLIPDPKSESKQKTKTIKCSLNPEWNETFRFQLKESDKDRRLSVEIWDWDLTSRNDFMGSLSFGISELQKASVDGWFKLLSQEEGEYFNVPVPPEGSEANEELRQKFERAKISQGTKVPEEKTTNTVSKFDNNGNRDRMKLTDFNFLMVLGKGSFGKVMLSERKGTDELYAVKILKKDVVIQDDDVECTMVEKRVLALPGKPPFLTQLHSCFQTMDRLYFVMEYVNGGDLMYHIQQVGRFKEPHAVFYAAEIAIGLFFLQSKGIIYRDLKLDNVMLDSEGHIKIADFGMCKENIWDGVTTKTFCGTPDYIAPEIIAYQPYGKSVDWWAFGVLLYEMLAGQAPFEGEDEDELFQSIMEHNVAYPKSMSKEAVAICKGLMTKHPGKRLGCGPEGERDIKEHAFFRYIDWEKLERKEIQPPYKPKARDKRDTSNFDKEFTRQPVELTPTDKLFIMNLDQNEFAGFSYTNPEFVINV

Ros(h) = Ros(h) (Homo sapiens (Human), UniProt P08922)
CSK(h) = CSK(h) (Homo sapiens (Human), UniProt P41240)
Abl (M351T)(h) = Abl (M351T)(h) (Homo sapiens (Human), UniProt P00519, M351T)
PTK5(h) = PTK5(h) (Homo sapiens (Human), UniProt P42685)
MAPKAP-K2(h) = MAPKAP-K2(h) (Homo sapiens (Human), UniProt P49137)
MAPKAP-K2(h), sequence (P49137 whole entry): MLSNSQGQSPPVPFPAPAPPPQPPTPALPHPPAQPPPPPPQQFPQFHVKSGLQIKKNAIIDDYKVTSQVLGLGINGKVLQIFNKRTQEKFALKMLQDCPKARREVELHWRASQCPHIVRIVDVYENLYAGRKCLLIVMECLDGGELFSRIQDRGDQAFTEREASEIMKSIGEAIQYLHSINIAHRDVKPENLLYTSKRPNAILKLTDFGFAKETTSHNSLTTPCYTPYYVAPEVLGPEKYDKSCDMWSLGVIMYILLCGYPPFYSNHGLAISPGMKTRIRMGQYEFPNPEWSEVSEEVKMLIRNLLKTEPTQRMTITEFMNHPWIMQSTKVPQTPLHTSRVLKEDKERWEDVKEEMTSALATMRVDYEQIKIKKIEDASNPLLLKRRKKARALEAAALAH

PKCμ(h) = PKCμ(h) (Homo sapiens (Human), UniProt Q15139)
PKCμ(h), sequence (Q15139 whole entry): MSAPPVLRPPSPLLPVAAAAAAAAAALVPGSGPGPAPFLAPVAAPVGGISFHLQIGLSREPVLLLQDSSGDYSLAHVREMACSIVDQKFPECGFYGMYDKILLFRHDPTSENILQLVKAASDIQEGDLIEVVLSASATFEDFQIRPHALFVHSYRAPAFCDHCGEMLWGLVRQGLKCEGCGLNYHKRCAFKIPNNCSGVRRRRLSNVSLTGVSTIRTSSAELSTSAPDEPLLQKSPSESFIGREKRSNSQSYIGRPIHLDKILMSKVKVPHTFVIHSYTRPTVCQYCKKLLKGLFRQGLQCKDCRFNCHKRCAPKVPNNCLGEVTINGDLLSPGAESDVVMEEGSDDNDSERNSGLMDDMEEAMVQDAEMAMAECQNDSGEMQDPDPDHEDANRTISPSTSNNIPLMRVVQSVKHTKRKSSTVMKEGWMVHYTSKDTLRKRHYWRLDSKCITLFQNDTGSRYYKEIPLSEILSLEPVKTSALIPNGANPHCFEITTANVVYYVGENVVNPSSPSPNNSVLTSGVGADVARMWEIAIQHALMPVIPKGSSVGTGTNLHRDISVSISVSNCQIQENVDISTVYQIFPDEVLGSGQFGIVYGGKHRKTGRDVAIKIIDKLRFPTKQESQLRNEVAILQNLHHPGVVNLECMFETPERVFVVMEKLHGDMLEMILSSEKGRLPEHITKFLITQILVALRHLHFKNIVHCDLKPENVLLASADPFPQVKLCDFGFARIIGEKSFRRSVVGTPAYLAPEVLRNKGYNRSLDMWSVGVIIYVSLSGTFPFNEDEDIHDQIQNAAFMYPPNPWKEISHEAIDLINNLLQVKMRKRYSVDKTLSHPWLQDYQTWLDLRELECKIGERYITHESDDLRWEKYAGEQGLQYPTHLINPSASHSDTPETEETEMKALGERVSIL

Haspin(h) = Haspin(h) (Homo sapiens (Human), UniProt Q8TF76)
EGFR(T790M, L858R)(h) = EGFR(T790M, L858R)(h) (Homo sapiens (Human), UniProt P00533, L858R/T790M)
PAK6(h) = PAK6(h) (Homo sapiens (Human), UniProt Q9NQU5)
Tie2(R849W)(h) = Tie2(R849W)(h) (Homo sapiens (Human), UniProt Q02763, R849W)
GCK(h) = GCK(h) (Homo sapiens (Human), UniProt Q12851)
GCK(h), sequence (Q12851 whole entry): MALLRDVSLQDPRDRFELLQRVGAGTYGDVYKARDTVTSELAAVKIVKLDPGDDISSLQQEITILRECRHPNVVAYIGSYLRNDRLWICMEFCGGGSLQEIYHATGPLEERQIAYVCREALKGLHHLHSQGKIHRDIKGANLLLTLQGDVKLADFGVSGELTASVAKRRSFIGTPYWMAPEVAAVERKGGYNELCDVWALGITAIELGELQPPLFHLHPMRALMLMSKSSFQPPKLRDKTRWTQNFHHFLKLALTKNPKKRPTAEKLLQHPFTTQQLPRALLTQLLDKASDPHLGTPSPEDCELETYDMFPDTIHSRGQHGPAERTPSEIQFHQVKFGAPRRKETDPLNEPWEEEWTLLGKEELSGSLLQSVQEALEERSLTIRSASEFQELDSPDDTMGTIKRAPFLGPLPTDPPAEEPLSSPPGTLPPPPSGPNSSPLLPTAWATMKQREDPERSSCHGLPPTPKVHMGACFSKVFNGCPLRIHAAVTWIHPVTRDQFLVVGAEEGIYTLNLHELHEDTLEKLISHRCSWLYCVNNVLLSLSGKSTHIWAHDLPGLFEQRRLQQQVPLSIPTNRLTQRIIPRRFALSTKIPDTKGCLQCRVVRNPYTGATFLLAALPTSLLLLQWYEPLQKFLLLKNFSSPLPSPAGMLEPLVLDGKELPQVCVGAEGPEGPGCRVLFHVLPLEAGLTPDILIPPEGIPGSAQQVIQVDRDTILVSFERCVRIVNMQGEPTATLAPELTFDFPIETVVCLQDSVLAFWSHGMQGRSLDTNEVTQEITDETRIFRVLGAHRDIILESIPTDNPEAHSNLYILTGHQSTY

SAPK3(h) = SAPK3(h) (Homo sapiens (Human), UniProt P53778)
SAPK3(h), sequence (P53778 whole entry): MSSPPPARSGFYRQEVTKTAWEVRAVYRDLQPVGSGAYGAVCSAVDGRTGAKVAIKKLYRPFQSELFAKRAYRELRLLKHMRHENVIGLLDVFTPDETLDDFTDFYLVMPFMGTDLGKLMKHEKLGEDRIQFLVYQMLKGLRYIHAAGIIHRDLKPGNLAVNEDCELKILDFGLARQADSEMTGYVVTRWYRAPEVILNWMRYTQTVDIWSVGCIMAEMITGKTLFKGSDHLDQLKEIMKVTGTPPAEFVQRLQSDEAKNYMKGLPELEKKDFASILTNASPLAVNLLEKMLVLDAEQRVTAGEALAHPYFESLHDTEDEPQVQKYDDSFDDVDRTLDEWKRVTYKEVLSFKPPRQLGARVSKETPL

PKCη(h) = PKCη(h) (Homo sapiens (Human), UniProt P24723)
PKD2(h) = PKD2(h) (Homo sapiens (Human), UniProt Q9BZL6)
KDR(h) = KDR(h) (Homo sapiens (Human), UniProt P35968)
PAK4(h) = PAK4(h) (Homo sapiens (Human), UniProt O96013)
Abl(T315I)(h) = Abl(T315I)(h) (Homo sapiens (Human), UniProt P00519, T315I)

remaining activity at 1 µM (Fes(h)): 52%
remaining activity at 1 µM (BRK(h)): 76%
remaining activity at 1 µM (Rsk4(h)): 89%
remaining activity at 1 µM (SGK(h)): 90%
remaining activity at 1 µM (TSSK2(h)): 95%
remaining activity at 1 µM (Aurora-A(h)): 125%
remaining activity at 1 µM (EphB2(h)): 106%
remaining activity at 1 µM (EGFR(h)): 89%
remaining activity at 1 µM (CaMKIIγ(h)): 41%
remaining activity at 1 µM (IRAK1(h)): 33%
remaining activity at 1 µM (NEK6(h)): 97%
remaining activity at 1 µM (TRKB(h)): 37%
remaining activity at 1 µM (Met(Y1248H)(h)): 70%
remaining activity at 1 µM (Itk(h)): 105%
remaining activity at 1 µM (TGFBR1(h)): 87%
remaining activity at 1 µM (Rsk1(h)): 56%
remaining activity at 1 µM (Lck(h)): 43%
remaining activity at 1 µM (WNK3(h)): 94%
remaining activity at 1 µM (Axl(h)): 36%
remaining activity at 1 µM (PRK2(h)): 56%
remaining activity at 1 µM (CDK5/p25(h)): 1%
remaining activity at 1 µM (CDK2/cyclinA(h)): 7%
remaining activity at 1 µM (PKCβI(h)): 102%
remaining activity at 1 µM (Ros(h)): 104%
remaining activity at 1 µM (CSK(h)): 91%
remaining activity at 1 µM (Abl (M351T)(h)): 95%
remaining activity at 1 µM (PTK5(h)): 99%
remaining activity at 1 µM (MAPKAP-K2(h)): 101%
remaining activity at 1 µM (PKCμ(h)): 30%
remaining activity at 1 µM (Haspin(h)): 2%
remaining activity at 1 µM (EGFR(T790M, L858R)(h)): 11%
remaining activity at 1 µM (PAK6(h)): 85%
remaining activity at 1 µM (Tie2(R849W)(h)): 101%
remaining activity at 1 µM (GCK(h)): 75%
remaining activity at 1 µM (SAPK3(h)): 68%
remaining activity at 1 µM (PKCη(h)): 92%
remaining activity at 1 µM (PKD2(h)): 58%
remaining activity at 1 µM (KDR(h)): 28%
remaining activity at 1 µM (PAK4(h)): 79%
remaining activity at 1 µM (Abl(T315I)(h)): 92%
SMILES: CCn1c(N2CCNCC2)nc2c(Br)c(Br)c(Br)c(Br)c21 [Compound 416, 4,5,6,7-tetrabromo-1-ethyl-2-(piperazin-1-yl)-1H-benzo[d]imidazole]
